pKi: −log10 of the molar value.

The target of the test is tryptase. The experiment in a line: In vitro tryptase inhibition assay. Format: biochemical, human. To be noted: tosyl-Gly-Pro-Lys-p-nitroanilide 0.5 mM; 1 h preincubation at room temperature; pH 8.2. The procedure:
The compounds to be assayed (approximately 1 mg) were dissolved in 200 μL dimethylsulfoxide (DMSO) and diluted 1:10 into buffer containing 50 millimolar (mM) Tris-HCl (pH 8.2), 100 mM sodium chloride, and 0.05% polyoxyethylenesorbitan monolaurate (Tween-20°, available from Sigma, St. Louis, Mo.). Seven additional threefold dilutions were made from the initial dilution into the same buffer supplemented with 10% DMSO. Aliquots (50 microliters, μL) from each of the eight dilutions in the series were transferred to individual wells in a 96-well U-bottom microtiter plate. […] The tryptase solution was prepared by placing 60 μg/mL of tryptase into solution with 10 mM MES (2-[N-Morpholino]ethane sulfonic acid) containing 2 mM CaCl2, 20% glycerol and 50 μg/mL heparin. The enzyme reaction was initiated with the addition of the synthetic tripeptide substrate, tosyl-Gly-Pro-Lys-p-nitroanilide (available from Sigma, 25 μL; 0.5 mM final concentration). […] Initial velocity measurements calculated from the progress curves by a kinetic analysis program (BatchKi; Petr Kuzmic, University of Wisconsin, Madison, Wis.) were used to determine apparent inhibition constants for each inhibitor.
One may read the pKi as the negative decadic logarithm of the Ki, by convention in mol/L. Higher therefore signals a small Ki. For the molecule `NCc1ccc(C(=O)NCCNC(=O)OCc2ccc(COC(=O)NCCNC(=O)c3ccc(CN)cc3)cc2)cc1` [Example 16, N,N'-Bis(4-aminomethylbenzamidoethylene)-1,4-benzenedimethanol dicarbamate], the pKi is 6.40.

`CN(Cc1ccc(CN(C)C(=O)CNC(=O)NCc2ccc(CN)cc2)cc1)C(=O)CNC(=O)NCc1ccc(CN)cc1` [Example 52, N,N'-Bis(methyl)-bis(glycine-p-xylylenediamine urea)-p-xylylene diamide] gave a pKi of 7.10.

As for `C[C@H](NC(=O)OCc1ccc(COC(=O)N[C@@H](C)C(=O)NCc2ccc(CN)cc2)cc1)C(=O)NCc1ccc(CN)cc1` [Example 13, Bis(p-xylylenediamine-L-alanine)-1,4-benzenedimethanol dicarbamate], the pKi is 7.51.

For the molecule `N=C(N)Nc1ccc(CNC(=O)[C@H](Cc2ccccc2)NC(=O)OCc2ccc(COC(=O)N[C@@H](Cc3ccccc3)C(=O)NCc3ccc(NC(=N)N)cc3)cc2)cc1` [Example 7], the pKi was 6.64.

With `C[C@@H](NC(=O)OCc1ccc(COC(=O)N[C@H](C)C(=O)NCc2ccc(CN)cc2)cc1)C(=O)NCc1ccc(CN)cc1` [Example 14, Bis(p-xylylenediamine-D-alanine)-1,4-benzenedimethanol dicarbamate], the pKi is 6.44.

Regarding `CN(Cc1ccc(CN(C)C(=O)CCCC(=O)NCc2ccc(CN)cc2)cc1)C(=O)CCCC(=O)NCc1ccc(CN)cc1` [Example 17, N,N'-Bis(N-(4-aminomethylbenzyl)glutaramido)-N,N'-bis(methyl)-p-xylylene diamide], the pKi is 7.85.

For `CN(Cc1ccc(CN(C)C(=O)CNC(=O)NC[C@H]2CC[C@H](CN)CC2)cc1)C(=O)CNC(=O)NC[C@H]1CC[C@H](CN)CC1` [Example 51, N,N'-Bis(methyl)-bis(glycine-trans-1,4-cyclohexylbis(methylamine)urea)-p-xylylene diamide], the pKi was 6.89.

The molecule `NCC1CCC(CNC(=O)CNC(=O)OCc2ccc(COC(=O)NCC(=O)NCC3CCC(CN)CC3)cc2)CC1` (centres unmarked) [Example 31, Bis(1,4-cyclohexyldimethylamineglycine)-1,4-benzenedimethanol dicarbamate] showed a pKi of 7.92.

The molecule `NCc1cccc(CNC(=O)CNC(=O)OCc2ccc(COC(=O)NCC(=O)NCc3cccc(CN)c3)cc2)c1` [Example 44, Bis((3-aminomethylbenzylamido)glycine)-1,4-benzenedimethanol dicarbamate] showed a pKi of 7.26.

The molecule `NCC1CCC(CNC(=O)CCCC(=O)NCc2ccc(CNC(=O)CCCC(=O)NCC3CCC(CN)CC3)cc2)CC1` (centres unmarked) [Example 24, N,N'-Bis(N-(4-aminomethylcyclohexylmethyl)-glutaramido)-p-xylylene diamide] showed a pKi of 7.26.

With `NCc1ccc(CNC(=O)NCC(=O)NCc2ccc(CNC(=O)CNC(=O)NCc3ccc(CN)cc3)cc2)cc1` [Example 47, Bis(N-(4-aminomethylbenzyl)glycylurea)-p-xylylene diamide], the pKi is 7.21.

Regarding `C[C@H](NC(=O)OCc1ccc(COC(=O)N[C@@H](C)C(=O)NCc2ccc(NC(=N)N)cc2)cc1)C(=O)NCc1ccc(NC(=N)N)cc1` [Example 5, Bis((4-guanidylbenzyl)-L-alanineamide-N^α -carbonyl)-1,4-dimethanolbenzene], the pKi is 6.54.

In the case of `CN(Cc1ccc(CN)cc1)C(=O)CNC(=O)OCc1ccc(COC(=O)NCC(=O)N(C)Cc2ccc(CN)cc2)cc1` [Example 32], the pKi was 6.06.

The molecule `NC[C@H]1CC[C@H](CNC(=O)CNC(=O)OCc2ccc(COC(=O)NCC(=O)NC[C@H]3CC[C@H](CN)CC3)cc2)CC1` [Example 45, Bis(trans-1,4-cyclohexyldimethylamine-glycine)-1,4-benzenedimethanol dicarbamate] showed a pKi of 8.00.

Take `NC[C@H]1CC[C@H](C(=O)NCCCNC(=O)OCc2ccc(COC(=O)NCCCNC(=O)[C@H]3CC[C@H](CN)CC3)cc2)CC1` [Example 22, N,N'-Bis(trans-4-aminomethylcyclohexyl-1-amido-propylene)-1,4-benzenedimethanol dicarbamate]: the pKi was 6.04.

In the case of `NCc1ccc(CNC(=O)CCCNC(=O)c2ccc(C(=O)NCCCC(=O)NCc3ccc(CN)cc3)cc2)cc1` [Example 15, N,N'-Bis(N-(4-aminomethylbenzyl)butyramido)terephthalamide], the pKi was 7.96.

In turn, `NCC1CCCC(CNC(=O)CCC(=O)NCc2ccc(CNC(=O)CCC(=O)NCC3CCCC(CN)C3)cc2)C1` (centres unmarked) [Example 29, N,N'-Bis(N-(3-aminomethylcyclohexylmethyl)-succinamido)-p-xylylene diamide] showed a pKi of 5.96.

“Bis((R,S)-2-(2-(4-guanidinobenzylamino)-2,3-dehydro-6-piperidone)-1,4-benzenedimethanol dicarbmate [Example 41]”: the pKi was 6.21.

Molecule `N=C(N)Nc1ccc(CNC(=O)NCC(=O)NCc2ccc(CNC(=O)CNC(=O)NCc3ccc(NC(=N)N)cc3)cc2)cc1` [Example 48] had a pKi of 6.15.

`N=C(N)Nc1ccc(CNC(=O)CCC(=O)NCc2ccc(CNC(=O)CCC(=O)NCc3ccc(NC(=N)N)cc3)cc2)cc1` [Example 37] gave a pKi of 7.40.

`NCc1ccc(CNC(=O)CCC(=O)Nc2ccc(NC(=O)CCC(=O)NCc3ccc(CN)cc3)cc2)cc1` [Example 39, N,N'-Bis((N-(4-aminomethylbenzyl)succinamido))-p-phenethylenediamide] had a pKi of 8.22.

Turning to `NCc1ccc(NC(=O)CNC(=O)OCc2ccc(COC(=O)NCC(=O)Nc3ccc(CN)cc3)cc2)cc1` [Example 42, Bis((4-aminomethylanilido)glycine)-1,4-benzenedimethanol dicarbamate], the pKi was 6.11.

In turn, `CN(CCCC(=O)NCc1ccc(CN)cc1)C(=O)c1ccc(C(=O)N(C)CCCC(=O)NCc2ccc(CN)cc2)cc1` [Example 20, N,N'-Bis(N-[4-aminomethylbenzyl)butyramido)-N,N'-bis(methyl)terephthalamide] showed a negative-log Ki (pKi) of 6.97.

`NCc1cccc(CNC(=O)CCC(=O)NCc2cccc(CNC(=O)CCC(=O)NCc3cccc(CN)c3)c2)c1` [Example 11, N,N'-Bis(N-(3-aminomethylbenzyl)succinamido)-m-xylylene diamide]: the pKi was 6.90.

`N=C(N)Nc1ccc(CNC(=O)CCCC(=O)NCc2ccc(CNC(=O)CCCC(=O)NCc3ccc(NC(=N)N)cc3)cc2)cc1` [Example 38]: the pKi is 7.00.

`N=C(N)Nc1ccc(CNC(=O)CC(=O)NCc2ccc(CNC(=O)CC(=O)NCc3ccc(NC(=N)N)cc3)cc2)cc1` [Example 36, N,N'-Bis(N-(4-Guanidylbenzylamine)-malonamido)-p-xylylene diamide] had a pKi of 6.17.

The molecule `NCc1ccc(CNC(=O)CCC(=O)NCc2ccc(CNC(=O)CCC(=O)NCc3cccc(CN)c3)cc2)cc1` [Example 35, N-(3-Aminomethylbenzylsuccinamido)-N'-(4-aminomethyl-benzylsuccinamido)-p-xylylene diamide] showed a pKi of 7.72.

`N=C(N)Nc1ccc(CNC(=O)CNC(=O)NCc2ccc(CNC(=O)NCC(=O)NCc3ccc(NC(=N)N)cc3)cc2)cc1` [Example 46, 4-(Guanidinobenzylamido)glycine-1,4-xylylene diurea]: the pKi was 8.00.

Molecule `NCc1ccc(CNC(=O)CC(=O)NCc2ccc(CNC(=O)CC(=O)NCc3ccc(CN)cc3)cc2)cc1` [Example 9, N,N'-Bis(N-(4-aminomethylbenzl)-malonamido)-p-xylylene diamide] gave a pKi of 6.82.

The record behind these values is patent publication US5656660A, “Compositions and methods for treating mast-cell mediated conditions” (Arris Pharmaceutical Corporation, priority 1995, dated 1997).
